Measurements reported in patent US7262186B2, “Substituted pyrazolo[3,4-d] pyrimidinones as a mitotic kinesin inhibitor” (Merck & Co., Inc., priority 2001, dated 2007).

Biological target: T1, human KSP motor domain (KSP(367H)) (Homo sapiens, UniProt P52732)
T1 construct: were used to amplify the motor domain and the neck linker region; made in house; host or cells: E. coli BL21 (DE3), pRSETa vector
T1 sequence (P52732 18-359 limits assumed): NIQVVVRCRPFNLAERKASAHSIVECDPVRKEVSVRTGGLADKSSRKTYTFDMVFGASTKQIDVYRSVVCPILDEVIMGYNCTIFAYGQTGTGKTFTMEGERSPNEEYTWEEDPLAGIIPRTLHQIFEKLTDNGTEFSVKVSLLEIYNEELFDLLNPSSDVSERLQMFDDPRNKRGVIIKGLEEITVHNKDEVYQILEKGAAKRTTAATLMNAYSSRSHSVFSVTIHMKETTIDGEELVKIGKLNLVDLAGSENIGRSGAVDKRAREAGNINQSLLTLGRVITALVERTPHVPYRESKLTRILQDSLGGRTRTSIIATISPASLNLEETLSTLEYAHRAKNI
Experiment: Kinesin ATPase in vitro assay
Type: biochemical
Settings: microtubule-stimulated ATPase, 1 mM ATP, 23° C., quinaldine red/ammonium molybdate phosphate detection
From the text: I. Kinesin ATPase In Vitro Assay
Cloning and Expression of Human Poly-histidine Tagged KSP Motor Domain (KSP(367H))
Plasmids for the expression of the human KSP motor domain construct were cloned by PCR using a pBluescript full length human KSP construct (Blangy et al., Cell, vol. 83, pp 1159-1169, 1995) as a template. The N-terminal primer 5′-[…] (SEQ.ID.NO.: 1) and the C-terminal primer 5′-[…] […] (SEQ.ID.NO.: 2) were used to amplify the motor domain and the neck linker region. The PCR products were digested with AseI and XhoI, ligated into the NdeI/XhoI digestion product of pRSETa (Invitrogen) and transformed into E. coli BL21 (DE3).
Cells were grown at 37° C. to an OD600 of 0.5. […]
The kinesin motor domain is incubated with microtubules, 1 mM ATP (1:1 MgCl2: Na-ATP), and compound at 23° C. in buffer containing 80 mM K-HEPES (pH 7.0), 1 mM EGTA, 1 mM DTT, 1 mM MgCl2, and 50 mM KCl. […] Free phosphate from the ATP hydrolysis reaction is measured via a quinaldine red/ammonium molybdate assay by adding 150 μl of quench C buffer containing a 2:1 ratio of quench A:quench B. Quench A contains 0.1 mg/ml quinaldine red and 0.14% polyvinyl alcohol; quench B contains 12.3 mM ammonium molybdate tetrahydrate in 1.15 M sulfuric acid. The reaction is incubated for 10 minutes at 23° C., and the absorbance of the phospho-molybdate complex is measured at 540 nm.

IC50: ≤ 50 µM
SMILES: CCC(c1nc2[nH]nc(Br)c2c(=O)n1Cc1ccccc1)N(CCN(C)C)C(=O)c1ccc(Br)cc1 (stereo not shown) [1-5, N-[1-(5-benzyl-3-bromo-4-oxo-4,5-dihydro-1H-pyrazolo[3,4-d]pyrimidin-6-yl)propyl]-4-bromo-N-[2-(dimethylamino)ethyl]benzamide]
